Results taken from PubChem BioAssay (NCI).
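Abbreviation: GI50, concentration required for 50% inhibition of growth. Definition used: TGI = concentration required for complete inhibition of growth.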

Assays:
Test in all cases: growth of human tumour cells (NCI), 384-well format
[1] = tested on: 786-0 renal
[2] = tested on: A498 renal
[3] = tested on: A549 NSCLC
[4] = tested on: ACHN renal
[5] = tested on: BT-549 breast
[6] = tested on: CAKI-1 renal
[7] = tested on: CCRF-CEM leukemia
[8] = tested on: COLO 205 colon
[9] = tested on: DU-145 prostate
[10] = tested on: EKVX NSCLC
[11] = tested on: HCC-2998 colon
[12] = tested on: HCT-116 colon
[13] = tested on: HCT-15 colon
[14] = tested on: HL-60(TB) leukemia
[15] = tested on: HOP-62 NSCLC
[16] = tested on: HOP-92 NSCLC
[17] = tested on: HS 578T breast
[18] = tested on: HT29 colon
[19] = tested on: IGROV1 ovarian
[20] = tested on: K-562 leukemia
[21] = tested on: KM12 colon
[22] = tested on: LOX IMVI melanoma
[23] = tested on: M14 melanoma
[24] = tested on: MALME-3M melanoma
[25] = tested on: MCF7 breast
[26] = tested on: MDA-MB-435 melanoma
[27] = tested on: MDA-MB-468 breast
[28] = tested on: MOLT-4 leukemia

Structure (SMILES): CN(C)C(=O)c1ccc(SC(=S)NCc2ccccc2)cc1
- GI50 [1]: 1990 nM
- TGI [1]: 3.6 µM
- GI50 [2]: 3.78 µM
- TGI [2]: 10.3 µM
- GI50 [3]: 7.98 µM
- TGI [3]: 21 µM
- GI50 [4]: 3.24 µM
- TGI [4]: 8.66 µM
- GI50 [5]: 2390 nM
- TGI [5]: 4.6 µM
- GI50 [6]: 2920 nM
- TGI [6]: 9.76 µM
- GI50 [7]: 1630 nM
- TGI [7]: 3.05 µM
- GI50 [8]: 4.72 µM
- TGI [8]: 15.1 µM
- GI50 [9]: 5.09 µM
- TGI [9]: 15 µM
- GI50 [10]: 13.4 µM
- TGI [10]: 26.3 µM
- GI50 [11]: 4.77 µM
- TGI [11]: 13.6 µM
- GI50 [12]: 3.51 µM
- TGI [12]: 8.81 µM
- GI50 [13]: 1900 nM
- TGI [13]: 3.53 µM
- GI50 [14]: 364 nM
- TGI [14]: 1150 nM
- GI50 [15]: 1900 nM
- TGI [15]: 3.87 µM
- GI50 [16]: 2720 nM
- TGI [16]: 7.17 µM
- GI50 [17]: 2770 nM
- TGI [17]: 5.81 µM
- GI50 [18]: 1800 nM
- TGI [18]: 3.25 µM
- GI50 [19]: 2480 nM
- TGI [19]: 6.77 µM
- GI50 [20]: 10.6 µM
- TGI [20]: 22.5 µM
- GI50 [21]: 1670 nM
- TGI [21]: 8.91 µM
- GI50 [22]: 2070 nM
- TGI [22]: 4.09 µM
- GI50 [23]: 2360 nM
- TGI [23]: 5.32 µM
- GI50 [24]: 3.15 µM
- TGI [24]: 5.52 µM
- GI50 [25]: 2360 nM
- TGI [25]: 10.6 µM
- GI50 [26]: 2230 nM
- TGI [26]: 5.21 µM
- GI50 [27]: 701 nM
- TGI [27]: 1330 nM
- GI50 [28]: 1640 nM
